Like-named read-outs stand apart in the source and are kept apart here. Some results are limits rather than exact numbers.

The target in one assay is T1, DMPK (Homo sapiens, UniProt Q09013).
T1 construct: purchased Reaction Biology Corp
T1 sequence (Q09013 1-629): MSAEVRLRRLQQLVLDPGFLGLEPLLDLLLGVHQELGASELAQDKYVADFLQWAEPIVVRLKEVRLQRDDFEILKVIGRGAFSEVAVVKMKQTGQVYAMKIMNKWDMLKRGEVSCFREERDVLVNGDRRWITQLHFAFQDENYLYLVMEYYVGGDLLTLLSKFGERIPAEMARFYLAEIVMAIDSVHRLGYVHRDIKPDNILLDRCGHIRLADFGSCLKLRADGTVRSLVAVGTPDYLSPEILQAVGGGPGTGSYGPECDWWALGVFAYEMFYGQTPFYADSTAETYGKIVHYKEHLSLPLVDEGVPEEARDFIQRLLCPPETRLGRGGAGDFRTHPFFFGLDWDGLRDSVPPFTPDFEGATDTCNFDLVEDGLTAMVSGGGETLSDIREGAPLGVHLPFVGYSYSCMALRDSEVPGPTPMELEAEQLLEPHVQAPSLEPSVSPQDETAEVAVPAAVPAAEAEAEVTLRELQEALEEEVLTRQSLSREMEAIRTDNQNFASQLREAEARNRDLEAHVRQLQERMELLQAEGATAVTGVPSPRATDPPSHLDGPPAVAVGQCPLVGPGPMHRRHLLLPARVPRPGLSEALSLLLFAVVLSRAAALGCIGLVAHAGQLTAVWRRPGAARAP
The assay is described as follows: Kinase selectivity, P33-radiolabeled assay. It is filed as biochemical. The note with it: 10 μM ATP. On the procedure: (§1) The compound was tested at a single dose in duplicate at 10 μM. Reactions were carried out at 10 μM ATP. Data are reported as % enzyme activity (relative to DMSO controls). The full data set is shown in the Supplementary Table I.

In another assay the target is T2, ABL2/ARG (Homo sapiens, UniProt P42684).
T2 construct: purchased Reaction Biology Corp
In words: Kinase selectivity, P33-radiolabeled assay. The note with it: 10 μM ATP. Type of assay: biochemical. On the procedure: as §1

For another assay, the target named is T3, ALK6/BMPR1B (Homo sapiens, UniProt O00238).
T3 construct: purchased Reaction Biology Corp
The assay is described as follows: Kinase selectivity, P33-radiolabeled assay. Type of assay: biochemical. The settings on record: 10 μM ATP. On the procedure:
as §1

The next assay has as its target T4, CDK2/cyclin E (Homo sapiens, UniProt P24941).
T4 construct: purchased Reaction Biology Corp
The assay is described as follows: Kinase selectivity, P33-radiolabeled assay. The settings on record: 10 μM ATP. Type of assay: biochemical. The method, then:
as §1

In the next assay the target is T5, BMPR2 (Homo sapiens, UniProt Q13873).
T5 construct: purchased Reaction Biology Corp
T5 sequence (Q13873 27-1038): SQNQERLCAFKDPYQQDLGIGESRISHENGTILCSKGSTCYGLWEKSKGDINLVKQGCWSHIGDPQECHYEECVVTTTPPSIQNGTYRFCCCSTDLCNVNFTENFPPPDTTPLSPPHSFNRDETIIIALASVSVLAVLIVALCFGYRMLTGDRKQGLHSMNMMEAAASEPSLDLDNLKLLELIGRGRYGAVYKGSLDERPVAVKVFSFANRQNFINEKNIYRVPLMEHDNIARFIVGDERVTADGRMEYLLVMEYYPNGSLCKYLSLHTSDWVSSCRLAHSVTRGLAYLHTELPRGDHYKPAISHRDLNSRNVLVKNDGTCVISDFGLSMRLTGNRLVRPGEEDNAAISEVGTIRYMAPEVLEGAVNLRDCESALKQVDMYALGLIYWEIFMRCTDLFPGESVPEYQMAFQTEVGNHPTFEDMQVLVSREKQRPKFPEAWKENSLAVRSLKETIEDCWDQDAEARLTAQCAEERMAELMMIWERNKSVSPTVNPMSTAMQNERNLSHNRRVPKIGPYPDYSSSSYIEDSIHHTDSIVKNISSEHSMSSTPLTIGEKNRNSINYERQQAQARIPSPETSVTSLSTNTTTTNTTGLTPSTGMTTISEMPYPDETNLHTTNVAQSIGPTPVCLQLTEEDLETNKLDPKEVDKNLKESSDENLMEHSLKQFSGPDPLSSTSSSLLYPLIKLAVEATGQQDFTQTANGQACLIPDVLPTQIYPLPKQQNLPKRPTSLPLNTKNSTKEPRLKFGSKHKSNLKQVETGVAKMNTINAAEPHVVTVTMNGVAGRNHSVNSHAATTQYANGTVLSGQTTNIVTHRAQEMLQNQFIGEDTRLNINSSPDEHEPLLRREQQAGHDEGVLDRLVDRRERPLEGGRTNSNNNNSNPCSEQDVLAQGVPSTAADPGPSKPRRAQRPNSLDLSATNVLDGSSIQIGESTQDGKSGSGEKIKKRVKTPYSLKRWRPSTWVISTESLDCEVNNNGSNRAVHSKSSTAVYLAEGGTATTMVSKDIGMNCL
The assay is described as follows: Kinase selectivity, P33-radiolabeled assay. The settings on record: 10 μM ATP. Type of assay: biochemical. On the procedure: as §1

The next assay has as its target T6, PRKX (Homo sapiens, UniProt P51817).
T6 construct: purchased Reaction Biology Corp
T6 sequence (P51817 1-358): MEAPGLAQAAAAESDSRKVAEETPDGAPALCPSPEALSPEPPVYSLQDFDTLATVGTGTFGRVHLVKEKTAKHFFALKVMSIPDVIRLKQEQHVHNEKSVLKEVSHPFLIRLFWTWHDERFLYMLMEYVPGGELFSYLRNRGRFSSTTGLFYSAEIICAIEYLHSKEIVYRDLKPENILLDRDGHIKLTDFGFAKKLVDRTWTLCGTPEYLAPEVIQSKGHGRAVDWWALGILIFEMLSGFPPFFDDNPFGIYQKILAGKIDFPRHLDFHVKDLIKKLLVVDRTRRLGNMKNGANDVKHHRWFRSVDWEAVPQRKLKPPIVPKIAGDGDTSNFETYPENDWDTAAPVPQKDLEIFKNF
The assay is described as follows: Kinase selectivity, P33-radiolabeled assay. The settings on record: 10 μM ATP. It is filed as biochemical. On the procedure:
as §1

Another assay has as its target T7, MSSK1/STK23 (Homo sapiens, UniProt Q9UPE1).
T7 construct: purchased Reaction Biology Corp
In words: Kinase selectivity, P33-radiolabeled assay. It is filed as biochemical. The settings on record: 10 μM ATP. On the procedure:
as §1

The next assay deals with 339 kinases. On the procedure:
as §1

The mark [1] stands for this setting: read-out: % Enzyme Activity (relative to DMSO controls) AVG.
[2] abbreviates: read-out: % Enzyme Activity (relative to DMSO controls) Data 1.
Where [3] appears, read: read-out: % Enzyme Activity (relative to DMSO controls) Data 2.

T3 sequence (O00238 14-502): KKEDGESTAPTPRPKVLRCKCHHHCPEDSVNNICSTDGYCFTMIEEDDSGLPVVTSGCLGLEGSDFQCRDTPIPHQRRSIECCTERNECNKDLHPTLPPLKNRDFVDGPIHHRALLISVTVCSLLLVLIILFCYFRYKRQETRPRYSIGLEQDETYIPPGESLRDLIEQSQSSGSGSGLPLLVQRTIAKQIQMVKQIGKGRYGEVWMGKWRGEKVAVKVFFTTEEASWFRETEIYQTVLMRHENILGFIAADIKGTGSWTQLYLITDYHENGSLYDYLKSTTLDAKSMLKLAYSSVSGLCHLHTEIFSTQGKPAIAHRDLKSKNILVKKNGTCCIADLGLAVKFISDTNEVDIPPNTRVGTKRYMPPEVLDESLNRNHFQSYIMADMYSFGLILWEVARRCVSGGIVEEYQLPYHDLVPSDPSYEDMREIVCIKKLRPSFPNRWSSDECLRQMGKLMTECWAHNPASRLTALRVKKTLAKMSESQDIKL
T2 sequence (P42684 whole entry): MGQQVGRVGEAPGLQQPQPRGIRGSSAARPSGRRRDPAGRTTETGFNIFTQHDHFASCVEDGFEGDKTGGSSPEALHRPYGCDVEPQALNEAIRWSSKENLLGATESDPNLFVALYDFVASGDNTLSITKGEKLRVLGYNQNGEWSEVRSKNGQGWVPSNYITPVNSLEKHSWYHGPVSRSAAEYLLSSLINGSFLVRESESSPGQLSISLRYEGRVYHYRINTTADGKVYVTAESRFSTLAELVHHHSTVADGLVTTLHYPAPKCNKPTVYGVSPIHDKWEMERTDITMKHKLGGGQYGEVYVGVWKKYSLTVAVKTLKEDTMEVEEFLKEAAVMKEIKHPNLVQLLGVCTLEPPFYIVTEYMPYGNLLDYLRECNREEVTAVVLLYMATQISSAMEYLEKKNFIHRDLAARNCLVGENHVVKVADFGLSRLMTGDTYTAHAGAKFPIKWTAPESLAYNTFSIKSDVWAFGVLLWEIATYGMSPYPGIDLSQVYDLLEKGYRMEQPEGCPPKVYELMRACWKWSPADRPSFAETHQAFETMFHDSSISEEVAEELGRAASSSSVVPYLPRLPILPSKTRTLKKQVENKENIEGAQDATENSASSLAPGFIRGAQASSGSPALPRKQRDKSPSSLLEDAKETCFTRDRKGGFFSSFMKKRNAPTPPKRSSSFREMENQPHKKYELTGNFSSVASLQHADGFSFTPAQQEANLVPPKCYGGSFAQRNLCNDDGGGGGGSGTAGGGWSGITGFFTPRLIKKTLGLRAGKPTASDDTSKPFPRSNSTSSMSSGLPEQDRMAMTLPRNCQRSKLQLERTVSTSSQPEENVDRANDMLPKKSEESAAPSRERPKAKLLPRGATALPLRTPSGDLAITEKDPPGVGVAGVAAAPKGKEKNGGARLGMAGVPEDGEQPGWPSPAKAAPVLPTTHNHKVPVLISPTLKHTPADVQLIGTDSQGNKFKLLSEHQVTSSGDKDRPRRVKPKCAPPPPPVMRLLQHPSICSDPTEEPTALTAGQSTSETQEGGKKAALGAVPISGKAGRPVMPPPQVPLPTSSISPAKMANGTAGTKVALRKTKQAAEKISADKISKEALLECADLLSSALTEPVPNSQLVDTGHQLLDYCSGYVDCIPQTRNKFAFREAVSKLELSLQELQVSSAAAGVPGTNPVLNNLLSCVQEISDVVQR
T7 sequence (Q9UPE1 whole entry): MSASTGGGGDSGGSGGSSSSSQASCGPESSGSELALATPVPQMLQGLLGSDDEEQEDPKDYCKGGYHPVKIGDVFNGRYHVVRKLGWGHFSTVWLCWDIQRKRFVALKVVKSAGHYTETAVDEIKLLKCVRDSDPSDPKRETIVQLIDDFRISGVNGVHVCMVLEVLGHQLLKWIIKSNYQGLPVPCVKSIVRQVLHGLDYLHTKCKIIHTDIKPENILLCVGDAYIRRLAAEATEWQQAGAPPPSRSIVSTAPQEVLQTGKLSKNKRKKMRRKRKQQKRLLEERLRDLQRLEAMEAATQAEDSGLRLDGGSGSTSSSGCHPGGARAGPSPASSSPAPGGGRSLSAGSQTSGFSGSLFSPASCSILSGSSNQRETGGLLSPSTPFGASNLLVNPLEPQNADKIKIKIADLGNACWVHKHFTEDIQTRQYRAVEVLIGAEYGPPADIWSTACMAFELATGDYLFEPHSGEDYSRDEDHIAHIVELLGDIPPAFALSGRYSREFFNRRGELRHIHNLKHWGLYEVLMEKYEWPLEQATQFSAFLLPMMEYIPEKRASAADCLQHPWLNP

In the case of `CC(C)(C)C(=O)N1N=CC[C@H]1c1ccccc1` [GSK′963], the remaining activity at 10 µM at DMPK (setting [1]) worked out at 99.2%; at DMPK (setting [2]), 97.5%; at DMPK (setting [3]) it was 101%; at ABL2/ARG (setting [1]) it was 83%; at ABL2/ARG (setting [2]), 84.7%; on ABL2/ARG (setting [3]), 81.4%. Moreover, the remaining activity at 10 µM on ALK6/BMPR1B (setting [1]) is 90.5%; on ALK6/BMPR1B (setting [2]), 91%; at ALK6/BMPR1B (setting [3]), 90%; on CDK2/cyclin E (setting [1]) it was 95.2%; at CDK2/cyclin E (setting [2]) it was 95.7%; on CDK2/cyclin E (setting [3]), 94.7%. In addition, the remaining activity at 10 µM on BMPR2 (setting [1]) was determined as 103%; on BMPR2 (setting [2]) it was 102%; at BMPR2 (setting [3]), 103%; at PRKX (setting [1]), 107%; on PRKX (setting [2]), 106%; at PRKX (setting [3]) it was 107%. Also, the remaining activity at 10 µM at MSSK1/STK23 (setting [1]) was found to be 107%; at MSSK1/STK23 (setting [2]) it was 108%; at MSSK1/STK23 (setting [3]), 105%. In addition, the “activity against 339 human kinases” value in the assay on 339 kinases (10μM, Reaction Biology Corporation) is given as “does not block the activity of any”. Moreover, the “inhibition against all other kinases tested” value in the assay with 339 kinases (10 μM, panel of 339 kinases) was below 50%.

For the origin of these results see publication PMC4979471 (Cell Death Discovery, 2015).
